Where two headings read alike, the source gives them in different places.
Tests used:
Assay type in all cases: cell-based
[1] = system: Acanthamoeba castellanii trophozoites; experiment: Activity against Acanthamoeba castellanii trophozoites
Protocol: Two Acanthamoeba species (Acanthamoeba castellanii—ATCC50370 and Acanthamoeba culbertsoni—ATCC30171) were bought from the American Type Culture Collection (ATCC) and one species (Acanthamoeba healyi) was donated from the Centers for Disease Control and Prevention (CDC) for our experimentations. Trophozoites were thawed and grown in 10 mL of a nutrient rich Peptose-Glucose (PG) media. The PG media composition is 83.26 mM Glucose (15 g/L), Protease Peptone (15 g/L, yeast extract is manufactured under controlled conditions to retain its vitamin content and other nutritive values such as free amino acids, no other composition information given), 2.2 mM KH2PO4 (300 mg/L), 2.97 μM Thiamine (1 mg/L), 99.86 μM L-methionine (14.9 mg/L), 4.6 μM Vitamin B12 (83.3 μl of 0.1 mg/mL stock/L) and 68 μM Biotin (83.3 μl of 0.2 mg/mL stock/L). […] One mL/L of the salt solution was added to the media stock prior to autoclaving. All reagents were purchased from Sigma Aldrich except the Glucose which was purchased from Alfa Aesar. The cell pellet was resuspended in a final volume of 10 mL of PG media, cultured in 75 cm^2 coming tissue culture flasks and incubated at 27° C. PG was supplemented with 125 μg of penicillin/streptomycin. Sub-culturing occurred twice per week to allow the continued growth and development of the Acanthamoeba trophozoites. […]

A549 cells = experiment: Toxicity to human A549 cells
[2] = system: Acanthamoeba castellanii (ATCC50370) cysts; experiment: Encystation drug susceptibility / excystation viability assay, 30 day recovery, A. castellanii cysts; conditions: ATCC50370, 720 h, read-out: A. castellanii 30 day MCC
Protocol: (§1) The trophozoites of Acanthamoeba were harvested by mechanical detachment and collected via centrifugation at 4000 rpm at 4° C. for 5 minutes. The trophozoites were washed in 10 mL of Neff's Encystment Media (NEM). NEM composition is 20 mM Tris-HCL [pH 8.8] (2.43 g/L), 100 mM KCL (7.46 g/L), 8 mM MgSO4 (962.96 mg/L), 0.4 mM CaCL2 58.81 mg/L) and 1 mM NaHCO3 (84.01 mg/L) (Neff et al. 1964). All reagents were bought from Sigma Aldrich. Centrifugation of the trophozoites was repeated to ensure any residual growth medium was removed. The pellet was resuspended in a final volume of 15 mL of NEM, cultured in 75 cm^2 corning tissue culture flasks and incubated vertically in a thermal shaker, shaken at 100 rpm at 37° C. for 72 hours to produce fully matured cysts. NEM was supplemented with 250 μg of penicillin/streptomycin. Fresh cysts were produced each time for any experimentation.
(§2) At 72 hours the cysts were harvested using a cell scraper and collected via centrifugation at 4000 rpm at 25° C. for 10 minutes. The cells were washed twice in 10 mL of HyClone™ water, Molecular Biology Grade, and centrifugation was repeated to ensure the removal of any residual NEM. The cell suspension was washed with 0.5% sodium dodecyl sulphate (SDS) to remove any remaining trophozoites and immature cysts. The fully mature cysts were further washed twice with 10 mL of HyClone™ water and 1% NEM, centrifugation was repeated to remove any residue of SDS. The concentration of mature cysts was determined using a haemocytometer and adjusted to 1×10^4 cysts/mL in NEM.
(§3) All test compounds were prepared as 5 mg/mL stock solutions in dimethylsulfoxide (DMSO). All compounds were diluted in NEM, serially diluted in 2-fold dilutions 6 or 11 times, yielding a screening concentration range of 1.56 μg/mL to 50 μg/mL or 48 ng/mL to 50 μg/mL with a final highest screening concentration of 1% DMSO.
(§4) Based on this, a strain specific test period and also a 30 day non-specific recovery time were considered. For the 30 day recovery period, the media was changed 5 times to ensure the contents of wells dis not evaporate and have an effect within the results of the assay.
(§5) 90 μL of 1×10^4 Cysts/ml and 10 μL of experimental compounds from the screening plates were produced according to the protocols above and combined into a Corning clear 96 well treated tissue culture plate. Control wells include cysts in non-drug treated, 1% DMSO, NEM (to be used for negative growth control), NEM Blank, PG blank and cysts in non-drug treated, 1% DMSO, PG (to excyst cells and to be used for positive growth control). The total well volume for all wells was 100 μL. The drug exposed plates were screened at 27° C. for 6 or 24 hours only. At the exposure time point the plates were centrifuged at 4000 rpm at 25° C. for 10 minutes and washed twice with phosphate-buffered saline (PBS) to remove any residual experimental compound.
(§6) Once the plate(s) underwent the Encystation drug susceptibility process, all wells except the negative growth control and NEM blank wells received PG growth medium. All plates were left to recover at 27° C. for the strain specific time period of 5, 9 or 11 days depending on the species of Acanthamoeba. At each of the strain specific time points the plates were removed from incubation and microscopically analysed (qualitatively) for the excystation process for the emergence of excysted viable trophozoites or residual cysts. The presence of excysted trophozoites indicated viable amoebae (non-cystistatic or cysticidal—no effect) and the absence of excystation was considered as cystistatic/cysticidal effects.

[3] = system: Acanthamoeba healyi cysts; experiment: Encystation drug susceptibility / excystation viability assay, 30 day recovery, A. healyi cysts; conditions: 720 h, read-out: A. healyi 30 day MCC
Protocol: as §1, §2, §3, §4, §5, §6

[4] = system: Acanthamoeba culbertsoni (ATCC30171) cysts; experiment: Encystation drug susceptibility / excystation viability assay, 30 day recovery, A. culbertsoni cysts; conditions: ATCC30171, 720 h, read-out: A. culbertsoni 30 day MCC
Protocol: as §1, §2, §3, §4, §5, §6

[5] = system: Balamuthia mandrillaris trophozoites; experiment: Activity against Balamuthia mandrillaris trophozoites
Protocol: Balamuthia mandrillaris trophozoites were thawed and grown in 10 ml of BM-3 medium. […] After autoclaving, complete BM-3 media was produced by the addition of 10% fetal bovine serum and 125 μg of penicillin/streptomycin antibiotics. The table describes all of the compounds and the activity against Balamuthia trophozoites compared to the activity for select Acanthamoeba trophozoites shown in Table 5.

[6] = read-out: A. cactellanii Trophozoite IC50
[7] = read-out: Acanthamoeba castellanii IC50
[8] = Homo sapiens, A549, read-out: A549 cell IC50
[9] = Balamuthia mandrillaris, read-out: Balamuthia mandrillaris IC50
[10] = trophozoites, n = 2, Table 6, read-out: Acanthamoeba castellanii IC50
[11] = human A549 cells, read-out: A549 cell IC50
[12] = minimum cysticidal concentration, no recovery up to 30 days
[13] = Balamuthia mandrillaris; trophozoites, n = 2; read-out: Balamuthia mandrillaris IC50
[14] = B. mandrillaris, versus pentamidine 29.38 μM

Structure (SMILES): CC(C)NC(=N)c1ccc2nc(-c3ccc(Oc4ccc(-c5nc6ccc(C(=N)NC(C)C)cc6[nH]5)c(F)c4F)cc3Br)[nH]c2c1 [Compound H, 2-(2-Bromo-4-(2,3-difluoro-4-(6-(N-isopropylcarbamimidoyl)-1H-benzo[d]imidazol-2-yl)phenoxy)phenyl)-N-isopropyl-1H-benzo[d]imidazole-6-carboximidamide]
- IC50 [1, 6]: 270 nM
- IC50 [1, 7]: 270 nM
- IC50 (A549 cells; [8]): 3110 nM
- MCC [2]: 1.88 µM
- MCC [3]: 1.88 µM
- MCC [4]: 1.88 µM
- IC50 [5, 9]: 100 nM

Structure (SMILES): CC(C)NC(=N)c1ccc2nc(-c3ccc(Oc4ccc(-c5nc6ccc(C(=N)NC(C)C)cc6[nH]5)c(Cl)c4)cc3Cl)[nH]c2c1 [L, 2-2′-(Oxybis(2-chloro-4,1-phenylene))bis(N-isopropyl-3H-benzo[d]imidazole-6-carboximidamide)]
- IC50 [1, 10]: 390 nM
- IC50 (A549 cells; [11]): 4170 nM
- MCC [2, 12]: 2.88 µM
- MCC [3, 12]: 2.88 µM
- MCC [4, 12]: 2.88 µM
- IC50 [5, 13]: 80 nM

Structure (SMILES): CC(C)NC(=N)c1ccc2nc(-c3ccc(Oc4cc(F)c(-c5nc6ccc(C(=N)NC(C)C)cc6[nH]5)c(F)c4)cc3Br)[nH]c2c1 [Compound G, 2-(2-Bromo-4-(3,5-difluoro-4-(6-(N-isopropylcarbamimidoyl)-1H-benzo[d]imidazol-2-yl)phenoxy)phenyl)-N-isopropyl-1H-benzo[d]imidazole-6-carboximidamide]
- IC50 [1, 6]: 260 nM
- IC50 [1, 7]: 260 nM
- IC50 (A549 cells; [8]): 6020 nM
- MCC [2]: 1.75 µM
- MCC [3]: 1.75 µM
- MCC [4]: 1.75 µM
- IC50 [5, 9]: 110 nM

Structure (SMILES): CC(C)NC(=N)c1ccc2nc(-c3cc(F)c(Oc4ccc(-c5nc6ccc(C(=N)NC(C)C)cc6[nH]5)c(Cl)c4)c(F)c3)[nH]c2c1 [Compound B, 2-(2-Chloro-4-(2,6-difluoro-4-(6-(N-isopropylcarbamimidoyl)-1H-benzo[d]imidazol-2-yl)phenoxy)phenyl)-N-isopropyl-1H-benzo[d]imidazole-6-carboximidamide]
- IC50 [1, 6]: 540 nM
- IC50 [1, 7]: 540 nM
- IC50 (A549 cells; [8]): 17100 nM
- MCC [2]: 9.6 µM
- MCC [3]: 3.84 µM
- MCC [4]: 2.88 µM
- IC50 [5, 9]: 400 nM

Structure (SMILES): COc1cc(Oc2ccc(-c3nc4ccc(C(=N)NC(C)C)cc4[nH]3)cc2F)ccc1-c1nc2ccc(C(=N)NC(C)C)cc2[nH]1 [K, 2-(3-Fluoro-4-(4-(6-(N-isopropylcarbamimidoyl)-1H-benzo[d]imidazol-2-yl)-3-methoxyphenoxy)phenyl)-N-isopropyl-1H-benzo[d]imidazole-6-carboximidamide]
- IC50 [1, 10]: 1100 nM
- IC50 (A549 cells; [11]): 4030 nM
- MCC [2, 12]: 9.65 µM
- MCC [3, 12]: 7.72 µM
- MCC [4, 12]: 7.89 µM
- IC50 [5, 13]: 140 nM

Structure (SMILES): COc1cc(Oc2c(F)cc(-c3nc4ccc(C(=N)NC(C)C)cc4[nH]3)cc2F)ccc1-c1nc2ccc(C(=N)NC(C)C)cc2[nH]1 [Compound A, 2-(3,5-Difluoro-4-(4-(6-(N-isopropylcarbamimidoyl)-1H-benzo[d]imidazol-2-yl)-3-methoxyphenoxy)phenyl)-N-isopropyl-1H-benzo[d]imidazole-6-carboximidamide]
- IC50 [1, 6]: 1190 nM
- IC50 [1, 7]: 1190 nM
- IC50 (A549 cells; [8]): 32700 nM
- MCC [2]: 47.4 µM
- MCC [3]: 7.9 µM
- MCC [4]: 7.9 µM
- times more potent than pentamide as reported in Schuster et al. [5, 14]: 48.9
- IC50 [5, 9]: 600 nM
- IC50 ([5]; Balamuthia mandrillaris, read-out: IC50 against B. mandrillaris): 600 nM

Structure (SMILES): COc1cc(-c2nc3ccc(C(=N)NC(C)C)cc3[nH]2)ccc1Oc1ccc(-c2nc3ccc(C(=N)NC(C)C)cc3[nH]2)cc1F [J, 2-(3-Fluoro-4-(4-(6-(N-isopropylcarbamimidoyl)-1H-benzo[d]imidazol-2-yl)-2-methoxyphenoxy)phenyl)-N-isopropyl-1H-benzo[d]imidazole-6-carboximidamide]
- IC50 [1, 10]: 950 nM
- IC50 (A549 cells; [11]): 4030 nM
- MCC [2, 12]: 11.2 µM
- MCC [3, 12]: 9.34 µM
- MCC [4, 12]: 7.47 µM
- IC50 [5, 13]: 80 nM

Structure (SMILES): CC(C)NC(=N)c1ccc2nc(-c3ccc(Oc4ccc(-c5nc6ccc(C(=N)NC(C)C)cc6[nH]5)cc4F)cc3)[nH]c2c1 [Compound I, 2-(3-Fluoro-4-(4-(6-(N-isopropylcarbamimidoyl)-1H-benzo[d]imidazol-2-yl)phenoxy)phenyl)-N-isopropyl-1H-benzo[d]imidazole-6-carboximidamide]
- IC50 [1, 10]: 710 nM
- IC50 (A549 cells; [11]): 3460 nM
- MCC [2, 12]: 4.2 µM
- MCC [3, 12]: 4.2 µM
- MCC [4, 12]: 8.41 µM
- times more potent than pentamide as reported in Schuster et al. [5, 14]: 587.6
- IC50 ([5]; Balamuthia mandrillaris; read-out: IC50 against B. mandrillaris): 50 nM
- IC50 [5, 13]: 50 nM

Structure (SMILES): COc1cc(Oc2ccc(-c3nc4ccc(C(=N)NC(C)C)cc4[nH]3)c(Br)c2)ccc1-c1nc2ccc(C(=N)NC(C)C)cc2[nH]1 [N, 2-(2-Bromo-4-(4-(6-(N-isopropylcarbamimidoyl)-1H-benzo[d]imidazol-2-yl)-3-methoxyphenoxy)phenyl)-N-isopropyl-1H-benzo[d]imidazole-6-carboximidamide]
- IC50 [1, 10]: 560 nM
- IC50 (A549 cells; [11]): 3920 nM
- MCC [2, 12]: 9.2 µM
- MCC [3, 12]: 5.52 µM
- MCC [4, 12]: 3.68 µM
- IC50 [5, 13]: 120 nM

Structure (SMILES): CC(C)NC(=N)c1ccc2nc(-c3ccc(Oc4ccc(-c5nc6ccc(C(=N)NC(C)C)cc6[nH]5)c(Br)c4)c(Br)c3)[nH]c2c1 [Compound R, 2-(2-Bromo-4-(2-bromo-4-(6-(N-isopropylcarbamimidoyl)-1H-benzo[d]imidazol-2-yl)phenoxy)phenyl)-N-isopropyl-1H-benzo[d]imidazole-6-carboximidamide]
- IC50 [1, 10]: 550 nM
- IC50 (A549 cells; [11]): 4180 nM
- MCC [2, 12]: 2.66 µM
- MCC [3, 12]: 3.56 µM
- MCC [4, 12]: 2.66 µM
- IC50 [5, 13]: 200 nM
